The values below come from patent US9000022B2 (Exelixis Patent Company LLC, priority 2005, dated 2015).

This assay has as its system LXRα and/or LXRβ. Kind of assay: Co-transfection assay (LXRE luciferase reporter, CV-1 cells). Format: cell-based, human. Particulars: tested as described in Example 33; IC50 or EC50 for LXRα and/or LXRβ, isoform not specified; read-out: activity (IC50 or EC50 for LXR). In a few lines:
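Luciferase signal measures LXR-RXR transcriptional activation in transiently transfected CV-1 cells carrying human LXRα or LXRβ, RXRα and a single-copy LXRE reporter. Cells were exposed to compound for 20 h at 37 °C with at most 1% DMSO, using 10 μM final for screening. Potency was derived from 4-parameter fits of 8-point, half-log dose curves averaged over ≥3 runs, and efficacy was expressed as % of a reference agonist.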

Each structure is given as a SMILES string.

In the case of `CC(C)(O)c1cn(-c2ccc(-c3ccc(CO)c(S(C)(=O)=O)c3)cc2F)c(-c2cccc(F)c2Cl)n1` [Example 125, 2-(2-(2-chloro-3-fluorophenyl)-1-(3-fluoro-4′-(hydroxymethyl)-3′-(methylsulfonyl)biphenyl-4-yl)-1H-imidazol-4-yl)propan-2-ol], the IC50 or EC50 (potency, activation or inhibition) was under 1000 nM.

Take `CCS(=O)(=O)c1cccc(-c2ccc(-n3cc(C(C)(C)O)nc3-c3c(F)cccc3Cl)c(F)c2)c1` [Example 126, 2-(2-(2-chloro-6-fluorophenyl)-1-(3′-(ethylsulfonyl)-3-fluorobiphenyl-4-yl)-1H-imidazol-4-yl)propan-2-ol]: the IC50 or EC50 (potency, activation or inhibition) is under 1000 nM.

On to `CC(C)(O)c1cn(-c2ccc(-c3ccc(CO)c(S(C)(=O)=O)c3)cc2F)c(-c2c(F)cccc2Cl)n1` [Example 127, 2-(2-(2-chloro-6-fluorophenyl)-1-(3-fluoro-4′-(hydroxymethyl)-3′-(methylsulfonyl)biphenyl-4-yl)-1H-imidazol-4-yl)propan-2-ol], for which the IC50 or EC50 (potency, activation or inhibition) was 1000 to 10000 nM.

On to `Cc1cccc(Cl)c1-c1nc(C(C)(C)O)cn1-c1ccc(-c2cccc(S(C)(=O)=O)c2)cc1F` [Example 128, 2-(2-(2-chloro-6-methylphenyl)-1-(3-fluoro-3′-(methylsulfonyl)biphenyl-4-yl)-1H-imidazol-4-yl)propan-2-ol], for which the IC50 or EC50 (potency, activation or inhibition) was under 1000 nM.

As to `CCS(=O)(=O)c1cccc(-c2ccc(-n3cc(C(C)(C)O)nc3-c3c(C)cccc3Cl)c(F)c2)c1` [Example 129], the IC50 or EC50 (potency, activation or inhibition) was under 1000 nM.

On to `CC(C)(O)c1cn(-c2ccc(-c3cccc(S(C)(=O)=O)c3)cc2F)c(-c2c(F)cccc2F)n1` [Example 130, 2-(2-(2,6-difluorophenyl)-1-(3-fluoro-3′-(methylsulfonyl)biphenyl-4-yl)-1H-imidazol-4-yl)propan-2-ol], for which the IC50 or EC50 (potency, activation or inhibition) is 1000 to 10000 nM.

As to `CCS(=O)(=O)c1cccc(-c2ccc(-n3cc(C(C)(C)O)nc3-c3c(F)cccc3F)c(F)c2)c1` [Example 131, 2-(2-(2,6-difluorophenyl)-1-(3′-(ethylsulfonyl)-3-fluorobiphenyl-4-yl)-1H-imidazol-4-yl)propan-2-ol], the IC50 or EC50 (potency, activation or inhibition) fell in the range of 1000 to 10000 nM.

In the case of `Cc1cccc(Cl)c1-c1nc(C(C)(C)O)cn1-c1ccc(-c2ccc(CO)c(S(C)(=O)=O)c2)cc1F` [Example 133, 2-(2-(2-chloro-6-methylphenyl)-1-(3-fluoro-4′-(hydroxymethyl)-3′-(methylsulfonyl)biphenyl-4-yl)-1H-imidazol-4-yl)propan-2-ol], the IC50 or EC50 (potency, activation or inhibition) is under 1000 nM.

For `CC(C)(O)c1cn(-c2ccc(-c3cccc(S(C)(=O)=O)c3)cc2F)c(-c2c(F)cccc2Cl)n1` [Example 134, 2-(2-(2-chloro-6-fluorophenyl)-1-(3-fluoro-3′-(methylsulfonyl)biphenyl-4-yl)-1H-imidazol-4-yl)propan-2-ol], the IC50 or EC50 (potency, activation or inhibition) was under 1000 nM.

As to `CC(C)(O)c1cn(-c2ccc(-c3cccc(S(C)(=O)=O)c3)cc2Cl)c(-c2ccccc2C(F)(F)F)n1` [Example 135, 2-(1-(3-chloro-3′-(methyl-sulfonyl)biphenyl-4-yl)-2-(2-(trifluoromethyl)phenyl)-1H-imidazol-4-yl)propan-2-ol], the IC50 or EC50 (potency, activation or inhibition) was under 1000 nM.

With `CCS(=O)(=O)c1cccc(-c2ccc(-n3cc(C(C)(C)O)nc3-c3ccccc3C(F)(F)F)c(Cl)c2)c1` [Example 136, 2-(1-(3-chloro-3′-(ethyl-sulfonyl)biphenyl-4-yl)-2-(2-(trifluoromethyl)phenyl)-1H-imidazol-4-yl)propan-2-ol], the IC50 or EC50 (potency, activation or inhibition) is under 1000 nM.

`CCS(=O)(=O)c1cccc(-c2ccc(-n3cc(C(C)(C)O)nc3-c3ccccc3Cl)c(Cl)c2)c1` [Example 137, 2-(1-(3-chloro-3′-(ethyl-sulfonyl)biphenyl-4-yl)-2-(2-chlorophenyl)-1H-imidazol-4-yl)propan-2-ol]: the IC50 or EC50 (potency, activation or inhibition) is under 1000 nM.

Take `CC(C)(O)c1cn(-c2ccc(-c3ccc(CO)c(S(C)(=O)=O)c3)cc2Cl)c(-c2ccccc2Cl)n1` [Example 138, 2-(1-(3-chloro-4′-(hydroxymethyl)-3′-(methylsulfonyl)biphenyl-4-yl)-2-(2-chlorophenyl)-1H-imidazol-4-yl)propan-2-ol]: the IC50 or EC50 (potency, activation or inhibition) was under 1000 nM.

Consider `CC(C)(O)c1cn(-c2ccc(-c3ccc(CO)c(S(C)(=O)=O)c3)cc2Cl)c(-c2ccccc2C(F)(F)F)n1` [Example 139, 2-(1-(3-chloro-4′-(hydroxymethyl)-3′-(methylsulfonyl)biphenyl-4-yl)-2-(2-(trifluoromethyl)phenyl)-1H-imidazol-4-yl)propan-2-ol], for which the IC50 or EC50 (potency, activation or inhibition) is under 1000 nM.

On to `CC(C)(O)c1cn(-c2ccc(-c3cccc(S(C)(=O)=O)c3)cc2Cl)c(-c2cccc(Cl)c2Cl)n1` [Example 140, 2-(1-(3-chloro-3′-(methyl-sulfonyl)biphenyl-4-yl)-2-(2,3-dichlorophenyl)-1H-imidazol-4-yl)propan-2-ol], for which the IC50 or EC50 (potency, activation or inhibition) was under 1000 nM.

Regarding `CCS(=O)(=O)c1cccc(-c2ccc(-n3cc(C(C)(C)O)nc3-c3cccc(Cl)c3Cl)c(Cl)c2)c1` [Example 141, 2-(1-(3-chloro-3′-(ethyl-sulfonyl)biphenyl-4-yl)-2-(2,3-dichlorophenyl)-1H-imidazol-4-yl)propan-2-ol], the IC50 or EC50 (potency, activation or inhibition) was under 1000 nM.

`CC(C)(O)c1cn(-c2ccc(-c3cccc(S(C)(=O)=O)c3)cc2Cl)c(-c2c(Cl)cccc2Cl)n1` [Example 142, 2-(1-(3-chloro-3′-(methyl-sulfonyl)biphenyl-4-yl)-2-(2,6-dichlorophenyl)-1H-imidazol-4-yl)propan-2-ol]: the IC50 or EC50 (potency, activation or inhibition) is under 1000 nM.

`Cc1c(Cl)cccc1-c1nc(C(C)(C)O)cn1-c1ccc(-c2cccc(S(C)(=O)=O)c2)cc1Cl` [Example 143, 2-(2-(3-chloro-2-methylphenyl)-1-(3-chloro-3′-(methylsulfonyl)biphenyl-4-yl)-1H-imidazol-4-yl)propan-2-ol]: the IC50 or EC50 (potency, activation or inhibition) is under 1000 nM.

On to `CCS(=O)(=O)c1cccc(-c2ccc(-n3cc(C(C)(C)O)nc3-c3cccc(Cl)c3C)c(Cl)c2)c1` [Example 144, 2-(2-(3-chloro-2-methylphenyl)-1-(3-chloro-3′-(ethylsulfonyl)biphenyl-4-yl)-1H-imidazol-4-yl)propan-2-ol], for which the IC50 or EC50 (potency, activation or inhibition) was under 1000 nM.

As for `CC(C)(O)c1cn(-c2ccc(-c3cccc(S(C)(=O)=O)c3)cc2Cl)c(-c2c(F)cccc2Cl)n1` [Example 145, 2-(1-(3-chloro-3′-(methyl-sulfonyl)biphenyl-4-yl)-2-(2-chloro-6-fluorophenyl)-1H-imidazol-4-yl)propan-2-ol], the IC50 or EC50 (potency, activation or inhibition) is under 1000 nM.

As for `CCS(=O)(=O)c1cccc(-c2ccc(-n3cc(C(C)(C)O)nc3-c3c(F)cccc3Cl)c(Cl)c2)c1` [Example 146, 2-(1-(3-chloro-3′-(ethyl-sulfonyl)biphenyl-4-yl)-2-(2-chloro-6-fluorophenyl)-1H-imidazol-4-yl)propan-2-ol], the IC50 or EC50 (potency, activation or inhibition) is under 1000 nM.

On to `CC(C)(O)c1cn(-c2ccc(-c3ccc(CO)c(S(C)(=O)=O)c3)cc2Cl)c(-c2c(F)cccc2Cl)n1` [Example 147, 2-(1-(3-chloro-4′-(hydroxymethyl)-3′-(methylsulfonyl)biphenyl-4-yl)-2-(2-chloro-6-fluorophenyl)-1H-imidazol-4-yl)propan-2-ol], for which the IC50 or EC50 (potency, activation or inhibition) is under 1000 nM.

Regarding `CC(C)(O)c1cn(-c2ccc(-c3ccc(CO)c(S(C)(=O)=O)c3)cc2Cl)c(-c2cccc(Cl)c2Cl)n1` [Example 148, 2-(1-(3-chloro-4′-(hydroxymethyl)-3′-(methylsulfonyl)biphenyl-4-yl)-2-(2,3-dichlorophenyl)-1H-imidazol-4-yl)propan-2-ol], the IC50 or EC50 (potency, activation or inhibition) is under 1000 nM.

As to `CC(C)(O)c1cn(-c2ccc(-c3ccc(CO)c(S(C)(=O)=O)c3)cc2Cl)c(-c2c(Cl)cccc2Cl)n1` [Example 149, 2-(1-(3-chloro-4′-(hydroxymethyl)-3′-(methylsulfonyl)biphenyl-4-yl)-2-(2,6-dichlorophenyl)-1H-imidazol-4-yl)propan-2-ol], the IC50 or EC50 (potency, activation or inhibition) is under 1000 nM.

`CCS(=O)(=O)c1cccc(-c2ccc(-n3cc(C(C)(C)O)nc3-c3c(Cl)cccc3Cl)c(Cl)c2)c1` [Example 150, 2-(1-(3-chloro-3′-(ethyl-sulfonyl)biphenyl-4-yl)-2-(2,6-dichlorophenyl)-1H-imidazol-4-yl)propan-2-ol]: the IC50 or EC50 (potency, activation or inhibition) was under 1000 nM.

In the case of `CC(C)(O)c1cn(-c2ccc(-c3cccc(S(C)(=O)=O)c3)cc2Cl)c(-c2cccc(F)c2Cl)n1` [Example 151, 2-(1-(3-chloro-3′-(methyl-sulfonyl)biphenyl-4-yl)-2-(2-chloro-3-fluorophenyl)-1H-imidazol-4-yl)propan-2-ol], the IC50 or EC50 (potency, activation or inhibition) is under 1000 nM.

Regarding `CCS(=O)(=O)c1cccc(-c2ccc(-n3cc(C(C)(C)O)nc3-c3cccc(F)c3Cl)c(Cl)c2)c1` [Example 152, 2-(1-(3-chloro-3′-(ethyl-sulfonyl)biphenyl-4-yl)-2-(2-chloro-3-fluorophenyl)-1H-imidazol-4-yl)propan-2-ol], the IC50 or EC50 (potency, activation or inhibition) is under 1000 nM.

For `CC(C)(O)c1cn(-c2ccc(-c3ccc(CO)c(S(C)(=O)=O)c3)cc2Cl)c(-c2cccc(F)c2Cl)n1` [Example 153, 2-(2-(2-chloro-3-fluorophenyl)-1-(3-chloro-4′-(hydroxymethyl)-3′-(methylsulfonyl)biphenyl-4-yl)-1H-imidazol-4-yl)propan-2-ol], the IC50 or EC50 (potency, activation or inhibition) is under 1000 nM.

For the compound `CCS(=O)(=O)c1cccc(-c2ccc(-n3cc(C(C)(C)O)nc3-c3c(C)cccc3Cl)c(Cl)c2)c1` [Example 154, 2-(1-(3-chloro-3′-(ethyl-sulfonyl)biphenyl-4-yl)-2-(2-chloro-6-methylphenyl)-1H-imidazol-4-yl)propan-2-ol], the IC50 or EC50 (potency, activation or inhibition) was under 1000 nM.
